Laboratory results reported in patent US8822505B2, “Azetidine derivatives” (Hoffmann-La Roche Inc., priority 2012, dated 2014).
pIC50: −log10 of the molar value. Counter-ions that a name gives are not always drawn.

Legend:
[1] = target: human Cat S (Homo sapiens (Human), UniProt P25774); assay: Cathepsin enzyme inhibition assay (human Cat S); format: biochemical; conditions: enzyme 1 nM, substrate Z-Val-Val-Arg-AMC 20 μM, pH 6.5
Description: (§1) Cathepsin Enzyme Inhibition Assay
(§2) Enzyme activity is measured by observing the increase in fluorescence intensity caused by cleavage of a peptide substrate containing a fluorophore whose emission is quenched in the intact peptide.
(§3) Assay buffer: 100 mM potassium phosphate pH 6.5, EDTA-Na 5 mM, Triton X-100 0.001%, DTT 5 mM.
(§4) Enzymes (all at 1 nM): human and mouse Cathepsin S, Cat K, Cat B, Cat L.
(§5) Substrate (20 μM): Z-Val-Val-Arg-AMC, except for Cat K which uses Z-Leu-Arg-AMC (both from Bachem).
Enzyme is added to the substance dilutions in 96-well microtitre plates and the reaction is started with substrate. […] IC50 are calculated by standard methods.
Inhibition of human Cat S, mouse Cat S, human Cat K, human Cat B, human Cat L and mouse Cat L have been measured separately.

[2] = target: human Cat L (Homo sapiens (Human), UniProt P07711); assay: Cathepsin enzyme inhibition assay (human Cat L); format: biochemical; conditions: enzyme 1 nM, substrate Z-Val-Val-Arg-AMC 20 μM, pH 6.5
Description: as §1, §2, §3, §4, §5
Excitation 360 nm, Emission 465 nm.
Enzyme is added to the substance dilutions in 96-well microtitre plates and the reaction is started with substrate. Fluorescence emission is measured over 20 minutes, during which time a linear increase is observed in the absence of inhibitor. IC50 are calculated by standard methods.
Inhibition of human Cat S, mouse Cat S, human Cat K, human Cat B, human Cat L and mouse Cat L have been measured separately. The results obtained for human Cat S and L for representative compounds of the invention are expressed in the following table in μM.

Sequence of human Cat L (P07711 114-333): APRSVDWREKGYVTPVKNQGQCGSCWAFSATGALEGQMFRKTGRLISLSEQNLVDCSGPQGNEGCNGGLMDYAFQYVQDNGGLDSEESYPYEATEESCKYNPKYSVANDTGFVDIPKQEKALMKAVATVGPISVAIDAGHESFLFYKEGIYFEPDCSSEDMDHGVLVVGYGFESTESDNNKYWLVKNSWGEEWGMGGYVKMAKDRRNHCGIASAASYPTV
Sequence of human Cat S (P25774 115-331): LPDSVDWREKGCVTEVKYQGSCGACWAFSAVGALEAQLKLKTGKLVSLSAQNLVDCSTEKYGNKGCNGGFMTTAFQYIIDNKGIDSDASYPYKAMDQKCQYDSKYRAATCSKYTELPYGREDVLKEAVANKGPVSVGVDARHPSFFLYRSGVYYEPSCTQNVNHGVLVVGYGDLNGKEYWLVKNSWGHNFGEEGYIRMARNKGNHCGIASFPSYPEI

SMILES | pIC50 [1] | pIC50 [2]
Cc1cc(-c2ccc(S(=O)(=O)[C@@H]3C[C@@H](C(=O)NC4(C#N)CC4)N(C(=O)C4(c5ncc(Br)cc5F)CCN4)C3)c(Cl)c2)ccn1 (stereo partly drawn) [Example 44, (2S,4R)-1-[2-(5-Bromo-3-fluoro-pyridin-2-yl)-azetidine-2-carbonyl]-4-[2-chloro-4-(2-methyl-pyridin-4-yl)-benzenesulfonyl]-pyrrolidine-2-carboxylic acid (1-cyano-cyclopropyl)-amide hydrochloride] | 8.68 | 7.15
Cn1cc(-c2ccc(S(=O)(=O)[C@@H]3C[C@@H](C(=O)NC4(C#N)CC4)N(C(=O)C4(c5ncc(Cl)cc5F)CCN4C(=O)OC(C)(C)C)C3)c(Cl)c2)cn1 (stereo partly drawn) [Example 45, tert-butyl 2-(5-chloro-3-fluoropyridin-2-yl)-2-((2S,4R)-4-(2-chloro-4-(1-methyl-1H-pyrazol-4-yl)phenylsulfonyl)-2-(1-cyanocyclopropylcarbamoyl)pyrrolidine-1-carbonyl)azetidine-1-carboxylate] | 9.02 | 6.20
Cn1cc(-c2ccc(S(=O)(=O)[C@@H]3C[C@@H](C(=O)NC4(C#N)CC4)N(C(=O)C4(c5ncc(Cl)cc5F)CCN4)C3)c(Cl)c2)cn1 (stereo partly drawn) [Example 47, (2S,4R)-1-[2-(5-Chloro-3-fluoro-pyridin-2-yl)-azetidine-2-carbonyl]-4-[2-chloro-4-(1-methyl-1H-pyrazol-4-yl)-benzenesulfonyl]-pyrrolidine-2-carboxylic acid (1-cyano-cyclopropyl)-amide hydrochloride] | 9.10 | 7.09
Cn1cc(-c2ccc(S(=O)(=O)[C@@H]3C[C@@H](C(=O)NC4(C#N)CC4)N(C(=O)C4(c5ncc(Br)cc5F)CCN4)C3)c(Cl)c2)cn1 (stereo partly drawn) [Example 48, (2S,4R)-1-[2-(5-Bromo-3-fluoro-pyridin-2-yl)-azetidine-2-carbonyl]-4-[2-chloro-4-(1-methyl-1H-pyrazol-4-yl)-benzenesulfonyl]-pyrrolidine-2-carboxylic acid (1-cyano-cyclopropyl)-amide hydrochloride] | 8.73 | 7.00
C[C@H](Oc1ccc(S(=O)(=O)[C@@H]2C[C@@H](C(=O)NC3(C#N)CC3)N(C(=O)C3(c4ncc(Br)cc4F)CN(CC(F)F)C3)C2)c(Cl)c1)C(F)(F)F [Example 49, (2S,4R)-1-[3-(5-Bromo-3-fluoro-pyridin-2-yl)-1-(2,2-difluoro-ethyl)-azetidine-3-carbonyl]-4-[2-chloro-4-((S)-2,2,2-trifluoro-1-methyl-ethoxy)-benzenesulfonyl]-pyrrolidine-2-carboxylic acid (1-cyano-cyclopropyl)-amide] | 9.00 | 8.30
C[C@H](Oc1ccc(S(=O)(=O)[C@@H]2C[C@@H](C(=O)NC3(C#N)CC3)N(C(=O)C3(c4ncc(Br)cc4F)CN(C=O)C3)C2)c(Cl)c1)C(F)(F)F [Example 50, (2S,4R)-1-[3-(5-Bromo-3-fluoro-pyridin-2-yl)-1-formyl-azetidine-3-carbonyl]-4-[2-chloro-4-((S)-2,2,2-trifluoro-1-methyl-ethoxy)-benzenesulfonyl]-pyrrolidine-2-carboxylic acid (1-cyano-cyclopropyl)-amide] | 9.05 | 8.30
COC(=O)N1CC(C(=O)N2C[C@H](S(=O)(=O)c3ccc(O[C@@H](C)C(F)(F)F)cc3Cl)C[C@H]2C(=O)NC2(C#N)CC2)(c2ncc(Br)cc2F)C1 [Example 51, 3-(5-Bromo-3-fluoro-pyridin-2-yl)-3-[(2S,4R)-4-[2-chloro-4-((S)-2,2,2-trifluoro-1-methyl-ethoxy)-benzenesulfonyl]-2-(1-cyano-cyclopropylcarbamoyl)-pyrrolidine-1-carbonyl]-azetidine-1-carboxylic acid methyl ester] | 8.70 | 8.15
C[C@H](Oc1ccc(S(=O)(=O)[C@@H]2C[C@@H](C(=O)NC3(C#N)CC3)N(C(=O)C3(c4ncc(Br)cc4F)CN(CC(F)(F)F)C3)C2)c(Cl)c1)C(F)(F)F [Example 52, (2S,4R)-1-[3-(5-Bromo-3-fluoro-pyridin-2-yl)-1-(2,2,2-trifluoro-ethyl)-azetidine-3-carbonyl]-4-[2-chloro-4-((S)-2,2,2-trifluoro-1-methyl-ethoxy)-benzenesulfonyl]-pyrrolidine-2-carboxylic acid (1-cyano-cyclopropyl)-amide] | 9.00 | 8.22
